# Measurements from PubChem BioAssay AID463229 (Broad Institute, 2010).
# Several values for one entry are separate records, joined by “and”; a condition that tells them apart may be missing. Equal entries are not always repeated.
# Test system: INS-1E rat beta cells, no cytokines, CellTiter-Glo ATP, 48 h
# Test: cytokine-free beta-cell viability effect – INS-1E rat cells, ATP luminescence, cherry pick, counter-screen for beta-cell apoptosis protection project, dose response (AID 463229)
row,Compound,AC50
1,O=C(Nc1nc2ccccc2[nH]1)c1ccccc1F,2.14 µM
2,CCN1/C(=C\C=C\C2=[N+](CC)c3ccccc3C2(C)C)C(C)(C)c2ccccc21,< 0.195 µM
3,O=C1/C(=C/c2cccnc2)CCC/C1=C\c1cccnc1,6.89 µM
4,CC(=O)c1c(C)[nH]c(C(=O)OCc2cccc(Cl)c2)c1C,25.4 µM
5,CC(C)(C)C1C/C(=C/c2ccccn2)C(=O)/C(=C/c2ccccn2)C1 (centres undefined),0.672 µM
6,Cc1ccccc1/C=N/Nc1ccnc2cc(Cl)ccc12,6.91 µM
7,Cc1ccc(C(=O)N/C(=C\c2ccc(-c3ccc(Br)cc3)o2)C(=O)NCCCN(C)C)cc1,7.87 µM
8,O=C(N/N=C/c1cc([N+](=O)[O-])ccc1O)c1cccc(NC(=O)c2cccc(Cl)c2)c1,5.82 µM
9,O=C(N/N=C/c1ccc(O)cc1O)c1ccc(NC(=O)C2CCCCC2)cc1,13 µM
10,CCC(=O)NC(c1ccc(OC)cc1)c1cc(Cl)c2cccnc2c1O (centres undefined),6.63 µM
11,COc1ccc(C(=O)Nc2ccccc2C(=O)N/N=C/c2ccccn2)cc1OC,8.14 µM
12,CCN(CC)CCN1c2ccccc2Sc2ccc3ccccc3c21,18.1 µM
13,CNC[C@@H](Cc1ccccc1)NC[C@@H](CC1CCCCC1)NCCCc1ccccc1,7.41 µM
14,C#CC(=O)N(c1cccc(OC)c1)C(C(=O)NC1CCCC1)c1cccs1 (centres undefined),14.7 µM
15,CCN(CC)S(=O)(=O)c1cccc(NC(=O)CNc2cccc(S(=O)(=O)N3CCCC3)c2)c1,6.2 µM
16,CCOc1cc(/C=N/NC(=O)c2cc(-c3cccc(OC)c3)nc3ccccc23)ccc1O,6.59 µM
17,CCCCCCCCn1c2c(c(=N)c3c1CCC3)CCCC2,< 0.195 µM
18,Oc1ccc(/C=N/Nc2ncc(Br)cn2)c(O)c1,3.83 µM
19,Cc1ccc(C(=O)C[n+]2cc(-c3ccccc3)n3c2CCCCC3)cc1,6 µM
20,CN(C)CCCn1cnc2c(c1=N)C(c1ccccc1)c1ccc3ccccc3c1O2 (centres undefined),7.08 µM
21,CC#CC[N+](C)(C)CCCCCCCCCCCC,2.23 µM
22,O=C1C(Cl)=C(Nc2ccc3cn[nH]c3c2)C(=O)c2ccccc21,4.47 µM
23,O=[N+]([O-])c1cnc(Sc2ccncn2)s1,5.75 µM
24,C=C(C)C(=O)N1CC2(CC(c3cccc(NC(=O)COc4ccc(Cl)cc4)c3)=NO2)C[C@@H]1C(N)=O (some centres undefined),12.8 µM
25,COc1ccc(O)c(/C=N/NC(=O)c2cccc(N3CCCC3=O)c2)c1,14.8 µM
26,Nc1nonc1-n1nnc(C(=O)N/N=C/c2cc(Br)ccc2O)c1CSC1=NCCS1,3.58 µM
27,O=C(NC1CCCC1)c1cc(COc2ccc3ncccc3c2)on1,5.91 µM

row,Compound,AC50
1,CCN(CC)S(=O)(=O)c1cc(OC)ccc1N=Nc1ccc(O)c2ncccc12,4.04 µM
2,CC1=NOC(=O)/C1=C/c1ccc(-c2ccc(Cl)cc2)o1,7 µM
3,O=C(Oc1c(CN2CCOCC2)cc(Cl)c2cccnc12)c1ccc(F)cc1,14 µM
4,CCN(CC)c1ccc(/C=N/NC(=O)c2cccc(S(=O)(=O)Nc3ccccc3OC)c2)c(O)c1,1.62 µM
5,CCC(CO)Oc1cc(NCc2ccc(C(C)(C)C)cc2)c2ncn(C(C)C)c2c1 (centres undefined),2.45 µM
6,COc1ccccc1NC(=O)c1cc2cc(Br)ccc2cc1O,7.8 µM
7,COC(=O)c1nc(-c2ccc3c(n2)C(=O)C(N)=C(OC)C3=O)c(N)c(-c2ccc(OC)c(OC)c2O)c1C,6.46 µM
8,COc1ccc(-c2csc(NC(=O)C3CCN(c4ncnc5sc(C)c(C)c45)CC3)n2)cc1OC,4.88 µM
9,COc1ccc(NS(=O)(=O)c2ccc(-c3coc(C)n3)cc2)cc1OC,4.39 µM
10,Cc1ccc(C(=O)Nc2nc(-c3ccccn3)cs2)cc1S(=O)(=O)N1CCOCC1,6.47 µM
11,Cc1cc2nc(-c3ccc(NC(=O)c4cccnc4)cc3)oc2cc1C,9.26 µM
12,COc1ccc(CC2(CO)CCN(CC3=Cc4cc(Cl)ccc4OC3)CC2)cc1,4.18 µM
13,CCOC(=O)c1ccc(NC(=O)c2nc(S(=O)(=O)Cc3ccccc3)ncc2Cl)cc1,9.2 µM
14,C/C(=N/Nc1nc(-c2ccccc2)cc(-c2ccc(F)cc2)n1)c1cccc(N)c1,15.1 µM
15,CCCCCCCCn1c(=O)c(C(=O)OC)c(N)c2ccccc21,4.89 µM
16,C#CCn1c(=NC(=O)c2ccc(S(=O)(=O)N3CCc4ccccc4C3)cc2)sc2cc(S(N)(=O)=O)ccc21,3.64 µM
17,Cn1ncc2c(N3CCN(c4ccc(Cl)c(Cl)c4)CC3)ncnc21,3.37 µM
18,CCc1ccc(-c2nn(-c3ccccc3)cc2CSC(=N)N)cc1,8.32 µM
19,CC(=O)Nc1ccc(NC(=O)CN(c2cccc([N+](=O)[O-])c2)S(C)(=O)=O)cc1,6.49 µM
20,FC(F)(F)c1nnc(-c2ccccc2)nc1Sc1ccc(Cl)cc1,12.6 µM
21,CC(=O)c1c(C)[nH]c(C(=O)OCC(=O)Nc2ccc(C)cc2[N+](=O)[O-])c1C,1.6 µM
22,Brc1ccc(CN2CCN(Cc3c[nH]c4ccccc34)CC2)cc1,6.91 µM
23,CCN1CCN(Cc2ccc(NC(=O)c3ccc(C)c(NC(=O)C(=O)c4c[nH]c5ccccc45)c3)cc2C(F)(F)F)CC1,13.8 µM and 7.23 µM
24,CCN(CC)c1ccc(/C=N/NC(=O)Cc2cccs2)c(O)c1,4.5 µM
25,O=C(N/N=C/c1cc(Br)c(Br)s1)c1ccncc1,9.72 µM
26,CCN(CC)CCOc1ccc2c(c1)C(=NNC(=O)c1ccccn1)c1cc(OCCN(CC)CC)ccc1-2,13.8 µM
27,CC1CN(S(=O)(=O)c2ccc(C(=O)NCCCn3ccnc3)cc2)CC(C)O1 (centres undefined),1.39 µM
